Test results published in ChEMBL document CHEMBL1136588, “Exploring new non-sugar sulfated molecules as activators of antithrombin” (Bioorg Med Chem Lett, 2003).

Columns and labels:
Coagulation factor X [1] = biological target: T1, Coagulation factor X (Homo sapiens, UniProt P00742); assay: Equilibrium dissociation constant of factor Xa inhibition
Coagulation factor X [2] = biological target: T1, Coagulation factor X; assay: Inhibitory activity against Plasma coagulation enzyme factor Xa; Value expressed as k Act/k UNCAT (uncatalyzed); format: cell-free
Coagulation factor X [3] = biological target: T1, Coagulation factor X; assay: Second-order rate constant of factor Xa inhibition

T1 sequence (P00742 41-179 limits assumed): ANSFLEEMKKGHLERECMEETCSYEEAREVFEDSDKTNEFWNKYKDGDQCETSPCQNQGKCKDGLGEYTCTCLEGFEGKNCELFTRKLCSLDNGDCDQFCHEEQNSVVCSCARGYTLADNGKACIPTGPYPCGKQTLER
T1 sequence (P00742 235-488 limits assumed): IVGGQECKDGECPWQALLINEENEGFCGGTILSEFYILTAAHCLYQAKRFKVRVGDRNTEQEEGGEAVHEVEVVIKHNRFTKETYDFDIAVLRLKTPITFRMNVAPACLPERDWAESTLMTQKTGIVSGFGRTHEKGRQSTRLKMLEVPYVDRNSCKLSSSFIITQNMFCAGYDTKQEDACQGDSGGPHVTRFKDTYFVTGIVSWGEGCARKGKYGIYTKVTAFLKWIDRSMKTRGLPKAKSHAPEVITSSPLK

Kd (Coagulation factor X [1]) [µM]	Acceleration (Coagulation factor X [2])	k act (Coagulation factor X [3]) [M⁻¹ s⁻¹]	Structure (SMILES)
2	320	45000	CO[C@H]1O[C@H](COS(=O)(=O)O)[C@@H](O[C@@H]2O[C@H](C(=O)O)[C@@H](O[C@H]3O[C@H](COS(=O)(=O)O)[C@@H](O)[C@H](O)[C@H]3NS(=O)(=O)O)[C@H](O)[C@H]2O)[C@H](OS(=O)(=O)O)[C@H]1NS(=O)(=O)O
17	17.5	5700	O=c1c(OS(=O)(=O)O)c(-c2ccc(OS(=O)(=O)O)c(OS(=O)(=O)O)c2)oc2cc(OS(=O)(=O)O)cc(OS(=O)(=O)O)c12
26.1	8.5	2770	O=S(=O)(O)Oc1cc2c(c(OS(=O)(=O)O)c1)CC(OS(=O)(=O)O)C(c1ccc(OS(=O)(=O)O)c(OS(=O)(=O)O)c1)O2 (stereo unspecified)
95	19.7	6400	CO[C@@H]1O[C@@H](C(=O)O)[C@@H](O[C@H]2OC(COS(=O)(=O)O)=C[C@H](OS(=O)(=O)O)[C@H]2NS(=O)(=O)O)[C@H](O)[C@H]1OS(=O)(=O)O
10.7	10.4	3380	O=S(=O)(O)Oc1cc2c(c(OS(=O)(=O)O)c1)C[C@H](OS(=O)(=O)O)[C@H](c1ccc(OS(=O)(=O)O)c(OS(=O)(=O)O)c1)O2
3.5	20.8	6750	O=S(=O)(O)Oc1cc2c(c(OS(=O)(=O)O)c1)C[C@@H](OS(=O)(=O)O)[C@H](c1ccc(OS(=O)(=O)O)c(OS(=O)(=O)O)c1)O2
1.8	21.8	7100	O=c1c(OS(=O)(=O)O)c(-c2ccc(OS(=O)(=O)O)cc2OS(=O)(=O)O)oc2cc(OS(=O)(=O)O)cc(OS(=O)(=O)O)c12
